Read-outs that look alike come from different tables or passages of the source.
Assays:
[1] = cited from earlier work; for pKa: reported value
ThermoGen esterases = test: True substrate selectivity measurements (competitive, resorufin ester), esters as substrates of the ThermoGen esterases; format: biochemical
Method: Esterase solution (5 μL in 5 mM BES) was added to each well and the microplate was placed in the microplate reader, shaken for 5 s and the decrease in absorbance at 404 nm and the increase in absorbance at 574 nm were measured as often as permitted by the microplate reader, typically every 11 s. Data was collected for 20 minutes, at 25° C., in triplicate and was averaged. Activities were calculated from the equations above using the linear, initial portions of the curve.
However, it is faster to measure selectivity of each substrate as it competes against a third substrate, which we call a reference compound. The ratio of the two competitive reactions is the true selectivity. […] Since some substrates react rapidly while others react slowly, we require both fast-reacting and slow-reacting reference compounds. In some cases we replaced resorufin acetate with the slower reacting resorufin pivaloate or resorufin isobutyrate as reference compounds.
The true selectivity of the ThermoGen esterases toward different acyl chain length was determined using a competitive experiment. Resorufin esters were used as the competitive substrate as explained above and normalized the results to hexanoate =100, Table 7. The true selectivities were similar to the estimated selectivities.

Method for physchem: The large difference in the extinction coefficients of the protonated and deprotonated forms (200 vs 18,000 M^−1 cm^−1 at 404 nm) gave good sensitivity. The extinction coefficients changed slightly upon addition of cosolvent and was determined experimentally.

Row | Structure (SMILES) | pKa [1] | other results
1 | Cc1cc(O)c(C(C)C)cc1C1(c2cc(C(C)C)c(O)cc2C)OS(=O)(=O)c2ccccc21 [thymol blue] | 9.2 | 
2 | O=[N+]([O-])c1ccc(O)cc1 [4-nitrophenol] | 7.2 | pKa upon addition of 10% ethanol ([1]; previously shown): 7.17
3 | O=c1ccc2nc3ccc(O)cc3oc-2c1 [resorufin alcohol, resorufin] |  | pKa (physchem): 8.15
4 | C=COC(=O)c1ccccc1 [Substrate 10, vinyl benzoate] |  | quality as substrate in true selectivity measurements (in words) (ThermoGen esterases): poor substrates
5 | O=S1(=O)OC(c2ccc(O)c(Cl)c2)(c2ccc(O)c(Cl)c2)c2ccccc21 [chlorophenol red] | 6.0 | 
6 | C=COC(=O)C(C)(C)C [Substrate 11, vinyl pivaloate] |  | quality as substrate in true selectivity measurements (in words) (ThermoGen esterases): poor substrates
7 | O=S(=O)(O)CCN1CCOCC1 [MES, 2-[N-morpholino]ethanesulfonic acid] | 6.1 | 
8 | O=S(=O)(O)CCCN1CCN(CCO)CC1 [EPPS, N-[2-hydroxylethyl]piperazine-N′-[3-propanesulfonic acid]] | 8.0 | 

From patent US20020177180A1, “pH-indicator based assay for selective enzymes” (ThermoGen, Inc., priority 1998, published 2002)
